pIC50: −log10 of the molar value. One block for each compound: values may come before it.
System: 454973-116-R2-J3-PDC spheroids, viability, % test/control
Assay: Anticancer human tumor 454973-116-R2-J3-PDC patient-derived pancreatic carcinoma cell line growth inhibition [GQUAD]
Settings: spheroids with HUVEC and MSC; for pIC50: curve of first compound; for viability, T/C: stronger effect = lower value
Summary of the method: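 Tumor cells were grown as complex spheroids with HUVEC endothelial cells and mesenchymal stem cells as stroma. G-quadruplex stabilizers were combined with targeted agents over half-log dilutions from near the clinical Cmax, or from 10 microM.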

[1] = second compound 0.0316 µM, first compound 0.0316 µM
[2] = second compound 0.0316 µM, first compound 0.1 µM
[3] = second compound 0.0316 µM, first compound 0.316 µM
[4] = second compound 0.0316 µM, first compound 1 µM
[5] = second compound 0.0316 µM, first compound 3.16 µM
[6] = second compound 0.0316 µM, first compound 10 µM
[7] = second compound 0.1 µM, first compound 0.0316 µM
[8] = second compound 0.1 µM, first compound 0.1 µM
[9] = second compound 0.1 µM, first compound 0.316 µM
[10] = second compound 0.1 µM, first compound 1 µM
[11] = second compound 0.1 µM, first compound 3.16 µM
[12] = second compound 0.1 µM, first compound 10 µM
[13] = second compound 0.316 µM, first compound 0.0316 µM
[14] = second compound 0.316 µM, first compound 0.1 µM
[15] = second compound 0.316 µM, first compound 0.316 µM
[16] = second compound 0.316 µM, first compound 1 µM
[17] = second compound 0.316 µM, first compound 3.16 µM
[18] = second compound 0.316 µM, first compound 10 µM
[19] = second compound 1 µM, first compound 0.0316 µM
[20] = second compound 1 µM, first compound 0.1 µM
[21] = second compound 1 µM, first compound 0.316 µM
[22] = second compound 1 µM, first compound 1 µM
[23] = second compound 1 µM, first compound 3.16 µM
[24] = second compound 1 µM, first compound 10 µM
[25] = second compound 3.16 µM, first compound 0.0316 µM
[26] = second compound 3.16 µM, first compound 0.1 µM
[27] = second compound 3.16 µM, first compound 0.316 µM
[28] = second compound 3.16 µM, first compound 1 µM
[29] = second compound 3.16 µM, first compound 3.16 µM
[30] = second compound 3.16 µM, first compound 10 µM
[31] = second compound 10 µM, first compound 0.0316 µM
[32] = second compound 10 µM, first compound 0.1 µM
[33] = second compound 10 µM, first compound 0.316 µM
[34] = second compound 10 µM, first compound 1 µM
[35] = second compound 10 µM, first compound 3.16 µM
[36] = second compound 10 µM, first compound 10 µM
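Note: spheroids exposed to compounds for seven days.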
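Throughout, for viability, T/C: 100% = DMSO vehicle control viability.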

SMILES: CCCS(=O)(=O)Nc1ccc(F)c(C(=O)c2c[nH]c3ncc(-c4ccc(Cl)cc4)cc23)c1F + Cc1[nH]c2ccc(F)cc2c1-c1nc2c3cccnc3c3ncccc3c2[nH]1
pIC50 (second compound 0.0316 µM): 5.22
pIC50 (second compound 0.1 µM): 5.25
pIC50 (second compound 0.316 µM): 5.20
pIC50 (second compound 1 µM): 5.20
pIC50 (second compound 3.16 µM): 5.19
pIC50 (second compound 10 µM): 5.19
viability, T/C [1]: 114%
viability, T/C [2]: 117%
viability, T/C [3]: 127%
viability, T/C [4]: 116%
viability, T/C [5]: 101%
viability, T/C [6]: 8.25%
viability, T/C [7]: 112%
viability, T/C [8]: 118%
viability, T/C [9]: 113%
viability, T/C [10]: 118%
viability, T/C [11]: 92.7%
viability, T/C [12]: 8.04%
viability, T/C [13]: 112%
viability, T/C [14]: 107%
viability, T/C [15]: 102%
viability, T/C [16]: 113%
viability, T/C [17]: 113%
viability, T/C [18]: 9.5%
viability, T/C [19]: 104%
viability, T/C [20]: 102%
viability, T/C [21]: 114%
viability, T/C [22]: 128%
viability, T/C [23]: 115%
viability, T/C [24]: 8.32%
viability, T/C [25]: 109%
viability, T/C [26]: 115%
viability, T/C [27]: 114%
viability, T/C [28]: 98.6%
viability, T/C [29]: 112%
viability, T/C [30]: 13.3%
viability, T/C [31]: 107%
viability, T/C [32]: 101%
viability, T/C [33]: 116%
viability, T/C [34]: 110%
viability, T/C [35]: 106%
viability, T/C [36]: 14.4%

SMILES: C=CC(=O)N1CCN(c2nc(=O)n(-c3c(C)ccnc3C(C)C)c3nc(-c4c(O)cccc4F)c(F)cc23)C(C)C1 (stereo unspecified) + Cc1[nH]c2ccc(F)cc2c1-c1nc2c3cccnc3c3ncccc3c2[nH]1
pIC50 (second compound 0.0316 µM): < 5.00
pIC50 (second compound 0.1 µM): < 5.00
pIC50 (second compound 0.316 µM): < 5.00
pIC50 (second compound 1 µM): < 5.00
pIC50 (second compound 3.16 µM): < 5.00
pIC50 (second compound 10 µM): < 5.00
viability, T/C [1]: 110%
viability, T/C [2]: 107%
viability, T/C [3]: 115%
viability, T/C [4]: 109%
viability, T/C [5]: 113%
viability, T/C [6]: 114%
viability, T/C [7]: 100%
viability, T/C [8]: 102%
viability, T/C [9]: 114%
viability, T/C [10]: 108%
viability, T/C [11]: 125%
viability, T/C [12]: 109%
viability, T/C [13]: 103%
viability, T/C [14]: 111%
viability, T/C [15]: 107%
viability, T/C [16]: 100%
viability, T/C [17]: 119%
viability, T/C [18]: 113%
viability, T/C [19]: 107%
viability, T/C [20]: 97%
viability, T/C [21]: 112%
viability, T/C [22]: 103%
viability, T/C [23]: 114%
viability, T/C [24]: 123%
viability, T/C [25]: 96.2%
viability, T/C [26]: 95.3%
viability, T/C [27]: 96.4%
viability, T/C [28]: 111%
viability, T/C [29]: 113%
viability, T/C [30]: 107%
viability, T/C [31]: 93.8%
viability, T/C [32]: 81.8%
viability, T/C [33]: 104%
viability, T/C [34]: 92.8%
viability, T/C [35]: 89.6%
viability, T/C [36]: 83.6%

pIC50 (second compound 0.0316 µM): 7.53
pIC50 (second compound 0.1 µM): 7.69
pIC50 (second compound 0.316 µM): 7.76
pIC50 (second compound 1 µM): 7.61
pIC50 (second compound 3.16 µM): 6.72
pIC50 (second compound 10 µM): > 9.00
SMILES: CC[C@@]1(O)C(=O)OCc2c1cc1n(c2=O)Cc2cc3c(CN(C)C)c(O)ccc3nc2-1 + Cc1cnc(CNC(=O)c2c(=O)c3ccc(N4CCCN(C)CC4)nc3n3c2sc2ccccc23)cn1
viability, T/C (second compound 0.0316 µM, first compound 0.000999 µM): 104%
viability, T/C (second compound 0.0316 µM, first compound 0.00316 µM): 95.8%
viability, T/C (second compound 0.0316 µM, first compound 0.00999 µM): 84.9%
viability, T/C [1]: 49%
viability, T/C (second compound 0.0316 µM, first compound 0.0999 µM): 21.9%
viability, T/C [3]: 23.7%
viability, T/C (second compound 0.1 µM, first compound 0.000999 µM): 90.8%
viability, T/C (second compound 0.1 µM, first compound 0.00316 µM): 90.2%
viability, T/C (second compound 0.1 µM, first compound 0.00999 µM): 77%
viability, T/C [7]: 33.4%
viability, T/C (second compound 0.1 µM, first compound 0.0999 µM): 24.8%
viability, T/C [9]: 23.1%
viability, T/C (second compound 0.316 µM, first compound 0.000999 µM): 79.9%
viability, T/C (second compound 0.316 µM, first compound 0.00316 µM): 69.1%
viability, T/C (second compound 0.316 µM, first compound 0.00999 µM): 55.6%
viability, T/C [13]: 43.1%
viability, T/C (second compound 0.316 µM, first compound 0.0999 µM): 39.2%
viability, T/C [15]: 32.9%
viability, T/C (second compound 1 µM, first compound 0.000999 µM): 67.1%
viability, T/C (second compound 1 µM, first compound 0.00316 µM): 67.6%
viability, T/C (second compound 1 µM, first compound 0.00999 µM): 54.9%
viability, T/C [19]: 48.4%
viability, T/C (second compound 1 µM, first compound 0.0999 µM): 50%
viability, T/C [21]: 47.4%
viability, T/C (second compound 3.16 µM, first compound 0.000999 µM): 61.2%
viability, T/C (second compound 3.16 µM, first compound 0.00316 µM): 63.4%
viability, T/C (second compound 3.16 µM, first compound 0.00999 µM): 60.2%
viability, T/C [25]: 49.6%
viability, T/C (second compound 3.16 µM, first compound 0.0999 µM): 61.7%
viability, T/C [27]: 42.7%
viability, T/C (second compound 10 µM, first compound 0.000999 µM): 19.2%
viability, T/C (second compound 10 µM, first compound 0.00316 µM): 17.5%
viability, T/C (second compound 10 µM, first compound 0.00999 µM): 57%
viability, T/C [31]: 45.9%
viability, T/C (second compound 10 µM, first compound 0.0999 µM): 0.31%
viability, T/C [33]: 0.23%
